Legend:
Assay type in all cases: binding
[1] = target: T1, Na-FAR-1 (Necator americanus, UniProt W2SRJ3); assay: NMR titration ([…] HSQC chemical shift perturbation); settings: apo protein 0.4 mM, sodium oleate, 20 mM sodium phosphate pH 7.20, 311 K; multiple sites, no fitted constant
T1 construct: gene NECAME_14208; His-tagged; expressed in E. coli BL21 (lambda DE3), selenomethionine form in B834

[2] = target: T1, Na-FAR-1; assay: X-ray crystallography; settings: selenomethionine-labelled protein; co-purified from E. coli, palmitate chosen as fit to a C16 fatty acid density; internal cavity around Lys96
[3] = target: T1, Na-FAR-1; assay: fluorescence emission spectroscopy; settings: delipidated protein

T1 sequence (W2SRJ3 entry or part of it): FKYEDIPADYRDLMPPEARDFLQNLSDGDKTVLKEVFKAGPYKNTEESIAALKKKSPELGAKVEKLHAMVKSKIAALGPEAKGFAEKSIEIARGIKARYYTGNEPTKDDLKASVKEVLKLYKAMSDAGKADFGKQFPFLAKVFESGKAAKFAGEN

CCCCCCCC/C=C\CCCCCCCC(=O)O [oleic acid]
NMR titration (15N HSQC chemical shift perturbation) [1]: the protein binds up to at least four oleate molecules

CCCCCCCCCCCCCCCC(=O)O [palmitate]
X-ray crystallography [2]: Since the predominant FA found in E. coli lipids is palmitate, we fitted this

CC1=C(/C=C/C(C)=C/C=C/C(C)=C/CO)C(C)(C)CCC1 [retinol]
fluorescence emission spectroscopy ([3]; retinol in ethanol, 1.5 μM protein, excitation 350 nm, isomer not stated): Na-FAR-1 bound the fluorescent FA analogue DAUDA and the naturally fluorescent lipid retinol

CN(C)c1cccc2c(S(=O)(=O)NCCCCCCCCCCC(=O)O)cccc12 [DAUDA]
fluorescence emission spectroscopy ([3]; PBS, 1 μM DAUDA, 1 μM protein, excitation 345 nm): Na-FAR-1 bound the fluorescent FA analogue DAUDA and the naturally fluorescent lipid retinol

Source: PMC4613501, “Diversity in the structures and ligand-binding sites of nematode fatty acid and retinol-binding proteins revealed by Na-FAR-1 from Necator americanus” (Biochemical Journal, 2015)
